Here are results for 11 compounds from ChEMBL document CHEMBL1201862, “PubChem BioAssay data set” (2004).

Molecules are shown by their SMILES.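 Assay format: 96-well plates, 48-hour exposure. At the GI50, growth is halved.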 Calls of active or inactive are those of the source. No stated cut-off is given here; in the data, active = GI50 up to about 1.1 µM and inactive = higher.

As a reminder, the GI50 is the concentration giving 50% growth inhibition.

Some test systems named below: ACHN; CAKI-1; HOP-92; Hs-578T; K562; LOX IMVI; MDA-MB-231; Malme-3M; NCI/ADR-RES; RPMI-8226; RXF 393; SF-295; SK-MEL-2; SN12C; SR; SW-620; U-251; UACC-257; SK-OV-3; HL-60.
Assay in all cases: DTP human tumour cell line panel, 48 h

`c1ccc2sc(SCSc3nc4ccccc4s3)nc2c1`: the GI50 is 74.8 µM (inactive) with ACHN; > 100 µM (inactive) in the assay on CAKI-1; > 100 µM (inactive) in the assay with HOP-92; > 100 µM (inactive) in the assay on Hs-578T; 31.1 µM (inactive) in the assay on K562; 47.2 µM (inactive) with LOX IMVI. Moreover, the GI50 is > 100 µM (inactive) with MDA-MB-231; > 100 µM (inactive) with Malme-3M; 94 µM (inactive) with NCI/ADR-RES; 51.5 µM (inactive) with RPMI-8226; > 100 µM (inactive) with RXF 393; 43.3 µM (inactive) in the assay with SF-295. Further, the GI50 in the assay with SK-MEL-2 was > 100 µM (inactive); in the assay on SN12C, > 100 µM (inactive); in the assay on SR, 7.08 µM (inactive); with SW-620 it was 96.8 µM (inactive); with U-251, 39.3 µM (inactive); in the assay on UACC-257, 28.5 µM (inactive).

Consider `CN(C)CC(C)(C)CN1c2ccccc2Sc2ccccc21`, for which the GI50 is 15.1 µM (inactive) in the assay with ACHN; 12.1 µM (inactive) in the assay on CAKI-1; 11.8 µM (inactive) in the assay on HOP-92; 14 µM (inactive) in the assay with Hs-578T; 8.55 µM (inactive) with K562; 13.6 µM (inactive) with LOX IMVI. For the same compound, the GI50 in the assay with MDA-MB-231 was 12 µM (inactive); with Malme-3M it was 14.8 µM (inactive); in the assay on NCI/ADR-RES, 12.7 µM (inactive); in the assay on RPMI-8226 it was 16.4 µM (inactive); in the assay on RXF 393, 2.12 µM (inactive); with SF-295, 13.8 µM (inactive). Further, the GI50 was 15.4 µM (inactive) in the assay with SK-MEL-2; 13.2 µM (inactive) in the assay on SK-OV-3; 12.9 µM (inactive) with SN12C; 10.1 µM (inactive) in the assay on SR; 15 µM (inactive) in the assay with SW-620; 13.6 µM (inactive) with U-251. Besides, the GI50 in the assay with UACC-257 was 12 µM (inactive).

As for `C/C1=C/C(C)CC(C)OC(=O)C(C)NC(=O)C(Cc2ccc(O)c(I)c2)N(C)C(=O)CNC(=O)C(C)C1` (stereo unspecified), the 50% growth inhibitory concentration (GI50) in the assay on ACHN was < 0.01 µM (active); with CAKI-1, < 0.01 µM (active); in the assay with HL-60 it was < 0.01 µM (active); in the assay with HOP-92, < 0.0112 µM (active); with Hs-578T it was < 0.0109 µM (active); with K562, < 0.01 µM (active). Further, the GI50 with LOX IMVI is < 0.01 µM (active); in the assay on MDA-MB-231, < 0.01 µM (active); with Malme-3M it was 0.0272 µM (active); in the assay with NCI/ADR-RES it was 0.0313 µM (active); with RPMI-8226, < 0.01 µM (active); in the assay with RXF 393 it was < 0.01 µM (active). Besides, the GI50 was 0.0101 µM (active) in the assay on SF-295; < 0.01 µM (active) in the assay on SK-OV-3; 0.0342 µM (active) with SN12C; < 0.01 µM (active) with SR; < 0.01 µM (active) in the assay with SW-620; < 0.01 µM (active) in the assay with U-251. The GI50 in the assay on UACC-257 is < 0.01 µM (active).

`C/C(=C\CNc1ncnc2c1ncn2CCC#N)CO`: the GI50 in the assay on ACHN, with CAKI-1, with HL-60, with HOP-92, with Hs-578T and with K562 was > 100 µM (inactive) throughout. For the same compound, the GI50 in the assay on LOX IMVI, with MDA-MB-231, with Malme-3M, with NCI/ADR-RES, with RPMI-8226 and in the assay with RXF 393 was > 100 µM (inactive) each time. Further, the GI50 with SF-295, in the assay with SK-OV-3, in the assay with SN12C, in the assay on SR, in the assay on SW-620 and in the assay with UACC-257 was > 100 µM (inactive) throughout.

With `CC(=O)OC1[C@H](n2ccnc2)C[C@H]2[C@@H]3CC=C4CC(N5CCCC5)CC[C@]4(C)[C@H]3CC[C@]12C` (stereo partly specified), the GI50 is 52.2 µM (inactive) in the assay on ACHN; 43.5 µM (inactive) in the assay with CAKI-1; 12.1 µM (inactive) in the assay with HL-60; 69.5 µM (inactive) in the assay on HOP-92; > 100 µM (inactive) with Hs-578T; 17.1 µM (inactive) in the assay on K562. Further, the GI50 with LOX IMVI is 10.1 µM (inactive); with MDA-MB-231, 66.2 µM (inactive); in the assay on NCI/ADR-RES, > 100 µM (inactive); in the assay with RPMI-8226 it was 23.2 µM (inactive); in the assay with RXF 393, 11.7 µM (inactive); in the assay on SF-295, 20.5 µM (inactive). The GI50 is 20.3 µM (inactive) with SK-MEL-2; 51.9 µM (inactive) in the assay on SN12C; 12 µM (inactive) with SR; 54.1 µM (inactive) with SW-620; 55.3 µM (inactive) in the assay on U-251; 18.8 µM (inactive) in the assay on UACC-257.

Turning to `Cc1ccc(C(=O)/C=C2\Nc3ccccc3N=C2NC23CC4CC(CC(C4)C2)C3)cc1`, the GI50 in the assay on ACHN, in the assay on CAKI-1, with HL-60, with HOP-92, in the assay on Hs-578T and in the assay on K562 was > 10 µM (inactive) each time. Also, the GI50 in the assay with LOX IMVI, in the assay with MDA-MB-231, in the assay on Malme-3M, in the assay with NCI/ADR-RES, with RPMI-8226 and with SF-295 was > 10 µM (inactive) in each case. In addition, the GI50 with SK-OV-3 is > 10 µM (inactive); with SN12C, > 10 µM (inactive); with SR, > 10 µM (inactive); in the assay with SW-620, 7.24 µM (inactive); in the assay with U-251 it was > 10 µM (inactive); in the assay on UACC-257, > 10 µM (inactive).

In the case of `O=[N+]([O-])c1c2nc3n(c2cc2c1nc1n2CCC1)CCC3`, the GI50 with ACHN, in the assay with CAKI-1, with HL-60, in the assay with HOP-92, in the assay with Hs-578T and with K562 was > 100 µM (inactive) in each case. Further, the GI50 in the assay with LOX IMVI was > 100 µM (inactive); in the assay on MDA-MB-231, > 100 µM (inactive); in the assay on Malme-3M, 93.1 µM (inactive); in the assay with NCI/ADR-RES, > 100 µM (inactive); in the assay on RPMI-8226, > 100 µM (inactive); in the assay on RXF 393, > 100 µM (inactive). Also, the GI50 with SF-295, with SK-OV-3, with SN12C, with SR, in the assay on SW-620 and with U-251 was > 100 µM (inactive) in each case. The GI50 with UACC-257 was > 100 µM (inactive).

As to `CCOC(=O)C1=NN(c2ccccc2)C(=O)/C1=C\NC(=S)C(N)=S`, the GI50 in the assay with ACHN was 21.5 µM (inactive); with CAKI-1 it was 38.1 µM (inactive); with HL-60, 38.9 µM (inactive); with HOP-92, 39.1 µM (inactive); in the assay on Hs-578T, 32.7 µM (inactive); in the assay on K562 it was 38 µM (inactive). Moreover, the GI50 is 37.8 µM (inactive) in the assay with LOX IMVI; 65.2 µM (inactive) in the assay with MDA-MB-231; 45.3 µM (inactive) in the assay with Malme-3M; > 100 µM (inactive) in the assay on NCI/ADR-RES; 29.2 µM (inactive) in the assay on RXF 393; 74.6 µM (inactive) in the assay on SF-295. Besides, the GI50 in the assay with SK-MEL-2 was 43.1 µM (inactive); with SK-OV-3 it was 75.7 µM (inactive); in the assay with SN12C, 37.8 µM (inactive); in the assay on SR it was 35.2 µM (inactive); in the assay with SW-620, 38.5 µM (inactive); in the assay on U-251 it was 42.3 µM (inactive). Besides, the GI50 in the assay with UACC-257 is 68.5 µM (inactive).

In the case of `O=C(O)CN1C=C(C(=O)c2cc3ccccc3n2S(=O)(=O)c2ccccc2)CCC1`, the GI50 in the assay with ACHN is 29.6 µM (inactive); in the assay with CAKI-1 it was > 100 µM (inactive); in the assay with HL-60 it was 32.2 µM (inactive); in the assay on HOP-92, 46.9 µM (inactive); in the assay on Hs-578T, 81.3 µM (inactive); in the assay on K562, 24.2 µM (inactive). The GI50 in the assay on LOX IMVI is 64.9 µM (inactive); in the assay with MDA-MB-231, > 100 µM (inactive); in the assay on Malme-3M, 28.4 µM (inactive); in the assay on NCI/ADR-RES it was 66.1 µM (inactive); with RXF 393 it was 54.5 µM (inactive); with SF-295, 69.5 µM (inactive). Further, the GI50 is 87.5 µM (inactive) in the assay with SK-MEL-2; > 10 µM (inactive) with SK-OV-3; 36.4 µM (inactive) in the assay on SR; 69.2 µM (inactive) with SW-620; 76.7 µM (inactive) with U-251; > 100 µM (inactive) with UACC-257.

Turning to `C/C=C1/CN2CCC3(O)c4ccccc4N4C=C(C(=O)OC)C1CC2C43O` (stereo unspecified), the GI50 in the assay with ACHN is > 100 µM (inactive); in the assay with CAKI-1, > 100 µM (inactive); with HL-60 it was > 100 µM (inactive); in the assay on HOP-92 it was > 100 µM (inactive); with Hs-578T, > 100 µM (inactive); with K562, 81.5 µM (inactive). In addition, the GI50 with LOX IMVI is > 100 µM (inactive); with MDA-MB-231, > 10 µM (inactive); in the assay on Malme-3M, > 100 µM (inactive); with NCI/ADR-RES, > 100 µM (inactive); in the assay on RPMI-8226, > 100 µM (inactive); with SF-295 it was > 100 µM (inactive). Also, the GI50 in the assay with SK-OV-3, in the assay with SN12C, with SR, in the assay on SW-620, in the assay on U-251 and in the assay on UACC-257 was > 100 µM (inactive) throughout.

On to `COc1cc(C=O)ccc1O` [VANILLIN], for which the GI50 in the assay with ACHN, in the assay with CAKI-1, in the assay with HL-60, with HOP-92, in the assay with Hs-578T and with K562 was > 100 µM (inactive) throughout. For the same compound, the GI50 with LOX IMVI, with MDA-MB-231, in the assay with Malme-3M, with NCI/ADR-RES, in the assay on RPMI-8226 and with SF-295 was > 100 µM (inactive) in each case. Moreover, the GI50 in the assay with SN12C, with SR, with SW-620, in the assay with U-251 and with UACC-257 was > 100 µM (inactive) throughout.
